Measurements: patent publication US20080261902A1, “Pharmaceutical composition containing polydatin and its application” (Shenzhen Neptunus Pharmaceutical Co., Ltd., priority 2005, published 2008)
In brackets after ≈: the same amount, converted by molar mass.

Key:
[1] = Effect of pH to solubility of polydatin (Embodiment 12); assay type: physicochemical; conditions: for solubility at 8 h: deionized water of adjusted pH, thermodynamic from solid, water, room temperature
Method: • 1. Materials: Deionized water, […] industry city; sodium hydroxide, Dongguan dongjiang chemical reagent co., ltd.; hydrochloric acid, Dongguan dongjiang chemical reagent co., ltd. • 2. Method: Regulating deionized water into pH of 5.0˜12.0 with 0.2N sodium hydroxide and 0.2N hydrochloric acid. Measuring precisely 20 ml each of above solutions, adding polydatin of proper amount respectively, treating with ultrasonic for 20 min under 40° C., supersaturating the solution, placing for 8 h under room temperature, filtering with 0.45 μm microporous membrane, wherein the filtrates are saturated solutions of polydatin in water solutions of different pHs. Adopting HPLC method to determine content of polydatin in the filtrates and calculate solubility of polydatin referring to document 20 (Wuye etc., determination content of resveratrol glycoside and tangerine peel glycoside in qing dan capsule with HPLC method, Chinese traditional patent medicine, 1999, 21(5): 226). • 3.

[2] = Solubility of polydatin in propanediol-water solution (Embodiment 14); assay type: physicochemical; conditions: for solubility at 8 h: thermodynamic from solid, room temperature
Method: Materials: 1,2-propanediol, analytically pure, Guangzhou No. 2 chemical reagent factory; purified water, […] industry city. Method: Preparing propanediol water solutions having concentration of at least 20%(v/v) with propanediol and purified water. Precisely measuring propanediol and 20 ml propanediol water solution of each above concentration, adding polydatin of proper amount respectively, treating with ultrasonic for 20 min under 40° C., supersaturating the solution, placing for 8 h under room temperature, filtering with 0.45 μm microporous membrane, wherein the filtrates are saturated solutions of polydatin in propanediol water solutions of different concentration. Adopting HPLC method to determine content of polydatin in the filtrates and calculate solubility of polydatin referring to document 20.

[3] = Solubility of polydatin in alcohol-propanediol-water mixed solvent (Embodiment 15); assay type: physicochemical; conditions: for solubility at 8 h: aqueous with cosolvent or surfactant or cyclodextrin, thermodynamic from solid
From the text: 1. Materials: Anhydrous alcohol, analytically pure, Guangzhou No. 2 chemical reagent factory; 1,2-propanediol, analytically pure, Guangzhou No. 2 chemical reagent factory; purified water, […] industry city. 2. Method: Precisely measuring alcohol water solution of 45%, 60%, 75%(v/v), precisely adding propanediol at volume proportions of 10:1, 10:2, 10:2.5, 10:3, 10:4, preparing mixed solvents. The mixed solvents obtained contain propanediol of about 10%˜30%(v/v), alcohol of about 32%˜68%(v/v). Precisely measuring 20 ml of each above mixed solvent, adding polydatin of proper amount respectively, treating with ultrasonic for 20 min under 40° C., supersaturating the solution, placing for 8 h under room temperature, filtering with 0.45 μm microporous membrane, wherein the filtrates are saturated solutions of polydatin in different mixed solutions. Adopting HPLC method to determine content of polydatin in the filtrates and calculate solubility of polydatin referring to document 20.

[4] = Polydatin solutions prepared by conventional methods (high pH, heating, tween 80); assay type: physicochemical
From the text: It is widely known by technicians in the field that clinic solutions require pH4.0˜9.0. Obviously, it is hard to prepare polydatin water solution of effective concentration by adjusting pH only. Furthermore, the polydatin has bad stability in solutions of high pH, so the clinic application of the polydatin drug composition preparations of high pH will be further limited. The described document No. 19 adopts heating to dissolve to obtain polydatin drug compositions. According to the experiment, the solutions obtained by heating to dissolve precipitate solute as the temperature reduces, and the polydatin concentrations in the solutions are lower than 0.5 mg/ml after indoor temperature balancing. Obviously, the method is not suitable in preparing officinal medicine preparations. China Patent Application 02134928.2 describes a method of preparing polydatin solutions for injection by adopting adjusting pH and/or adding surfactants (tween 80). […] Furthermore, the prior documents indicate that preparations of administration in vein should be avoided to use as possible because tween surfactants have potential hemolytic and antihypertensive activity. (Zhuangyue etc., applied drug preparation technique, People's medical publishing house 1999:p417)

[5] = Solubility of polydatin in alcohol-propanediol-water mixed solvent (Embodiment 15); assay type: physicochemical; conditions: mixed solvent of 60% alcohol-water and propanediol 10:25(v/v) as printed
[6] = system: hyperlipoidemia patient; conditions: 2.2 mg/kg/d; cited from earlier work
[7] = system: blood platelet; conditions: 6˜100 μmol/L; cited from earlier work
[8] = system: SD rats, shock related to blood loss; test: Treatment action for shock related to blood loss (Embodiment A7)

In the case of `OCC1OC(Oc2cc(O)cc(/C=C/c3ccc(O)cc3)c2)C(O)C(O)C1O` [polydatin, 3,4′,5-trihydroxy-trans stilbene-3-β-D-glucoside], the “pH of the solution needed to obtain polydatin water solution” value ([1]; concentration above 3 mg/ml) is reported as “above 12”, the solubility at 8 h ([1]; pH 5, aqueous buffer, pH of solvent 5.0) is reported as under 0.5 mg/mL and the solubility at 8 h ([1]; pH 6, aqueous buffer, pH of solvent 6.0) is reported as under 0.5 mg/mL. It also gave a solubility at 8 h ([1]; pH 7, aqueous buffer, pH of solvent 7.0) of under 0.5 mg/mL, a solubility at 8 h ([1]; pH 8, aqueous buffer, pH of solvent 8.0) of under 0.5 mg/mL and a solubility at 8 h ([1]; pH 9, aqueous buffer, pH of solvent 9.0) of under 0.5 mg/mL. It also gave a solubility at 8 h ([1]; pH 10, aqueous buffer, pH of solvent 10.0) of under 0.5 mg/mL, a solubility at 8 h ([1]; pH 11, aqueous buffer, pH of solvent 11.0) of 0.7 mg/mL (≈ 1.79 mM) and a solubility at 8 h ([1]; pH 12, aqueous buffer, pH of solvent 12.0) of about 5 mg/mL (≈ 12.8 mM). For the same compound, the “pH of final solution” value ([1]; pH of solvent 12) was “about 10”, the “pH of the final solution” value ([1]; polydatin water solution of concentration above 3 mg/ml) was “above 10” and the solubility at 8 h ([2]; 1,2-propanediol, organic solvent or mixture, content of propanediol 100% (propanediol)) was about 60 mg/mL (≈ 154 mM). For the same compound, the “stability of the solution” value ([2]; 20% propanediol water solution, about 3.5 mg/ml) was “precipitates solute of polydatin after placing for 12 h”, the solubility at 8 h ([2]; propanediol-water solution, aqueous with cosolvent or surfactant or cyclodextrin, content of propanediol 20% (v/v) in water) was about 3.5 mg/mL (≈ 8.97 mM) and the solubility at 8 h ([2]; propanediol-water solution, aqueous with cosolvent or surfactant or cyclodextrin, content of propanediol 35% (v/v) in water) was 4.9 mg/mL (≈ 12.6 mM). For the same compound, the solubility at 8 h ([2]; propanediol-water solution, aqueous with cosolvent or surfactant or cyclodextrin, content of propanediol 50% (v/v) in water) was 24.4 mg/mL (≈ 62.5 mM), the solubility at 8 h ([2]; propanediol-water solution, aqueous with cosolvent or surfactant or cyclodextrin, content of propanediol 65% (v/v) in water) was 28.3 mg/mL (≈ 72.5 mM) and the solubility at 8 h ([2]; propanediol-water solution, aqueous with cosolvent or surfactant or cyclodextrin, content of propanediol 80% (v/v) in water) was 33.6 mg/mL (≈ 86.1 mM). For the same compound, the solubility at 8 h ([3]; alcohol-propanediol-water mixed solvent, 45% alcohol water/propanediol 10/1) was 27.8 mg/mL (≈ 71.2 mM), the solubility at 8 h ([3]; alcohol-propanediol-water mixed solvent, 45% alcohol water/propanediol 10/2) was 34.3 mg/mL (≈ 87.9 mM) and the solubility at 8 h ([3]; alcohol-propanediol-water mixed solvent, 45% alcohol water/propanediol 10/2.5) was 39.5 mg/mL (≈ 101 mM). It also gave a solubility at 8 h ([3]; alcohol-propanediol-water mixed solvent, 45% alcohol water/propanediol 10/3) of 42.4 mg/mL (≈ 109 mM), a solubility at 8 h ([3]; alcohol-propanediol-water mixed solvent, 45% alcohol water/propanediol 10/4) of 52.2 mg/mL (≈ 134 mM) and a solubility at 8 h ([3]; alcohol-propanediol-water mixed solvent, 60% alcohol water/propanediol 10/1) of 55.7 mg/mL (≈ 143 mM). For the same compound, the solubility at 8 h ([3]; alcohol-propanediol-water mixed solvent, 60% alcohol water/propanediol 10/2) was 66.4 mg/mL (≈ 170 mM), the solubility at 8 h ([3]; alcohol-propanediol-water mixed solvent, 60% alcohol water/propanediol 10/2.5) was about 75 mg/mL (≈ 192 mM) and the solubility at 8 h ([3]; alcohol-propanediol-water mixed solvent, 60% alcohol water/propanediol 10/3) was 93.3 mg/mL (≈ 239 mM). For the same compound, the solubility at 8 h ([3]; alcohol-propanediol-water mixed solvent, 60% alcohol water/propanediol 10/4) was 95.2 mg/mL (≈ 244 mM), the solubility at 8 h ([3]; alcohol-propanediol-water mixed solvent, 75% alcohol water/propanediol 10/1) was 81.5 mg/mL (≈ 209 mM) and the solubility at 8 h ([3]; alcohol-propanediol-water mixed solvent, 75% alcohol water/propanediol 10/2) was 89.8 mg/mL (≈ 230 mM). The solubility at 8 h ([3]; alcohol-propanediol-water mixed solvent, 75% alcohol water/propanediol 10/2.5) was 92.9 mg/mL (≈ 238 mM), the solubility at 8 h ([3]; alcohol-propanediol-water mixed solvent, 75% alcohol water/propanediol 10/3) was 98.4 mg/mL (≈ 252 mM) and the solubility at 8 h ([3]; alcohol-propanediol-water mixed solvent, 75% alcohol water/propanediol 10/4) was 116 mg/mL (≈ 297 mM). The solubility at 8 h ([3]; alcohol-water solution without propanediol, 45% alcohol water, no propanediol (10/—)) was 20.2 mg/mL (≈ 51.7 mM), the solubility at 8 h ([3]; alcohol-water solution without propanediol, 60% alcohol water, no propanediol (10/—)) was 42.5 mg/mL (≈ 109 mM) and the solubility at 8 h ([3]; alcohol-water solution without propanediol, 75% alcohol water, no propanediol (10/—)) was 75.1 mg/mL (≈ 192 mM). The concentration of polydatin ([3]; mixed solvent of 60% alcohol-water and propanediol 10:2.0~10:4.0) was “higher than 60 mg/ml”, the “sensitivity of polydatin (solution)” value [4] was “sensitive to temperature and light” and the “polydatin concentration in solutions obtained by heating to dissolve” value ([4]; after indoor temperature balancing) was “lower than 0.5 mg/ml”. For the same compound, the “stability in solutions of high pH” value ([4]; high pH) was “bad stability”, the “cold preservation of polydatin drug composition” value ([4]; tween 80 of 0.5%, pH8.5, concentration 4 mg/ml, 4° C.) was “can not be cold preserved” and the “stabilization of the solution in cold preservation” value [5] was “good stabilization”. The “total cholesterol, LDL/HDL cholesterol ratio, and blood platelet aggregation rate” value [6] was “capable of lowering”, the “production of the platelet accumulation and B2 thrombus induced by AA and ADP” value [7] was “capable of inhibiting” and the “fraction of the treatment group with survival period of 24 hours” value ([8]; 2.4 mg/kg through femoral vein) was 9/10. The “fraction of the treatment group with survival period of 48 hours” value ([8]; 2.4 mg/kg through femoral vein) was 8/10, the “fraction of the treatment group with survival period of 72 hours” value ([8]; 2.4 mg/kg through femoral vein) was 6/10 and the “ratio of the survival time of the treatment group and the control group” value ([8]; 2.4 mg/kg through femoral vein, 1 hour after shock) was over 5.5. The arterial pressure ([8]; after 30 minutes of medication, 2.4 mg/kg, 5.3+0.2 kPa after shock for 1 hour) was 8.6+0.8 kPa and the “increase of diameter of micro blood vessel” value ([8]; after medication, 2.4 mg/kg, diameter reduced to 63.3% by shock) was 20.3%.
